Experimental data as given in ChEMBL document CHEMBL1129317, “Novel selective and partial agonists of 5-HT3 receptors. Part 1. Synthesis and biological evaluation of piperazinopyrrolothienopyrazines” (J Med Chem, 1996).

Legend:
[1] = molecular target: Adenosine A2 receptor (Homo sapiens) (UniProt P29275+P29274); assay: Inhibitory activity against Adenosine A2 receptor using [3H]CGS-21680 at […] (M); format: protein assay
[2] = molecular target: Interleukin-1 receptor type 1 (Homo sapiens) (UniProt P14778); assay: Inhibitory activity against Interleukin 1d using [3H]IL-1-alpha at […] (M)
Sequence of Interleukin-1 receptor type 1 (Homo sapiens) (P14778 whole entry): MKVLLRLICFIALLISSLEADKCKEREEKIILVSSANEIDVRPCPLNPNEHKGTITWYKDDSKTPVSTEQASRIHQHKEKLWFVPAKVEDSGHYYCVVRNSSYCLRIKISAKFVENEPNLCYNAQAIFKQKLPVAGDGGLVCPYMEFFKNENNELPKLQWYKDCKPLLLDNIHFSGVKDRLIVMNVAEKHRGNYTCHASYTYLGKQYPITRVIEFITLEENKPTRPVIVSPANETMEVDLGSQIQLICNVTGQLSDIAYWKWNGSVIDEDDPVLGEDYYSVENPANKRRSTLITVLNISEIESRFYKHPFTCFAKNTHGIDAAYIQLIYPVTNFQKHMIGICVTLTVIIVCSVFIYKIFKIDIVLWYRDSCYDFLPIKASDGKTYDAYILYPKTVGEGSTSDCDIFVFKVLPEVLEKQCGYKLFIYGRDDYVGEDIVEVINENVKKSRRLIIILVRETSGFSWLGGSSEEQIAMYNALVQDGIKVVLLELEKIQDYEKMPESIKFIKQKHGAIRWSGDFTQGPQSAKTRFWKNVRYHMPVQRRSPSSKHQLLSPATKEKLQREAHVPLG

[3] = Inhibition of [3H]batrachotoxin binding to sodium channel at 10e-5 M
[4] = molecular target: Mu-type opioid receptor (Homo sapiens) (UniProt P35372); assay: Inhibitory activity against Opioid receptor mu 1 using [3H]DAMGO at 10e-5 (M)
Sequence of Mu-type opioid receptor (Homo sapiens) (P35372 whole entry): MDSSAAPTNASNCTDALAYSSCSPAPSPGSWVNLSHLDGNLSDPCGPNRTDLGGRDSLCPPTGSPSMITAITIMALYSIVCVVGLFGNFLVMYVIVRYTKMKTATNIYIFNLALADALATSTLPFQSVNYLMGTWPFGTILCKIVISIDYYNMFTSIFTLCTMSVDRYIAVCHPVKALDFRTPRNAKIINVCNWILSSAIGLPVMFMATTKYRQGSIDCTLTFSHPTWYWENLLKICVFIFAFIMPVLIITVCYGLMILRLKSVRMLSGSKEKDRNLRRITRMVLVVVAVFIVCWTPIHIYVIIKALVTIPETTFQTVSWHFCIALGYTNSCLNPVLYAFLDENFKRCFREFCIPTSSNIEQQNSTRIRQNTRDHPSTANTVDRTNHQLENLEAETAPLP

[5] = molecular target: Beta-2 adrenergic receptor (Homo sapiens) (UniProt P07550); assay: Inhibitory activity against Beta-2 adrenergic receptor using [3H]CGP-12177 at […] (M)
[6] = molecular target: Cholecystokinin receptor type A (Homo sapiens) (UniProt P32238); assay: Inhibitory activity against Cholecystokinin type A receptor using [3H]L-364718 at […] (M)
[7] = molecular target: 5-hydroxytryptamine receptor 1D (Sus scrofa, UniProt P79400); assay: Binding affinity for 5-hydroxytryptamine 1D receptor
Sequence of 5-hydroxytryptamine receptor 1D (P79400 whole entry): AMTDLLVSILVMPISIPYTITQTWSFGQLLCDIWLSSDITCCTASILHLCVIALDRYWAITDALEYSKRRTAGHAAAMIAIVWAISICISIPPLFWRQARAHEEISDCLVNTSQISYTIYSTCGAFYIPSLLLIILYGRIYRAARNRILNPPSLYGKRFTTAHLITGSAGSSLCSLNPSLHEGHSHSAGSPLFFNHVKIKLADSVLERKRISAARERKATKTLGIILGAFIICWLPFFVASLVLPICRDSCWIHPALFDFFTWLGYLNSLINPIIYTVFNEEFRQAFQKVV

[8] = molecular target: Thyrotropin-releasing hormone receptor (Homo sapiens) (UniProt P34981); assay: Inhibitory activity against TRH using [3H]TRH at 10e-5 (M)
[9] = molecular target: T1, Serotonin 3 (5-HT3) receptor (Rattus norvegicus) (UniProt P35563+Q9JJ16); assay: Agonistic activity of compound towards 5-hydroxytryptamine 3 receptor in Von Bezold-Jarisch Reflex in rats at 120 (ug/kg), evaluated as change in heart rate; format: functional
[10] = Inhibitory activity against Gamma-aminobutyric acid type B receptor using [3H]GABA at 10e-5 M
[11] = molecular target: Platelet-activating factor receptor (Homo sapiens) (UniProt P25105); assay: Inhibitory activity against Platelet activating factor receptor using [3H]PAF at […] (M)
Sequence of Platelet-activating factor receptor (Homo sapiens) (P25105 whole entry): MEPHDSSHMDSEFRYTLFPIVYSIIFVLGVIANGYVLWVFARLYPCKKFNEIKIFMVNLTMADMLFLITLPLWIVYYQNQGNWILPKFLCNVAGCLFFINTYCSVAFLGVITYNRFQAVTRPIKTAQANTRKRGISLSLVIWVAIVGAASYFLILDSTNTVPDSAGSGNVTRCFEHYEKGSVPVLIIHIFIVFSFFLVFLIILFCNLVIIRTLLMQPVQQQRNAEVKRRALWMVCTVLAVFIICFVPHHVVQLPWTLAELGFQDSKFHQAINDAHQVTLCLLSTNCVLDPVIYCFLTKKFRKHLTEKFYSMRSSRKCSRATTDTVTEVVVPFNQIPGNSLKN

[12] = Inhibition of [3H]apamin binding to Potassium channel at 10e-5 M
[13] = molecular target: Thromboxane A2 receptor (Homo sapiens) (UniProt P21731); assay: Inhibitory activity against Thromboxane A2 using [3H]SG-29548 at 10e-5 (M)
[14] = molecular target: GABA-A receptor; anion channel (Homo sapiens) (UniProt P14867+P47870+P18507+P28472+P48169+Q99928+Q9UN88+P34903+O00591+O14764+Q8N1C3+P18505+P78334+P47869+P31644+Q16445); assay: Inhibition of [3H]flunitrazepam binding to GABA-A central Benzodiazepine receptor at 10e-5 M; format: protein-complex assay
[15] = molecular target: Leukotriene B4 receptor 1 (Homo sapiens) (UniProt Q15722); assay: Inhibitory activity against Leukotriene B4 receptor using [3H]- LTB4 at […] (M)
Sequence of Leukotriene B4 receptor 1 (Homo sapiens) (Q15722 whole entry): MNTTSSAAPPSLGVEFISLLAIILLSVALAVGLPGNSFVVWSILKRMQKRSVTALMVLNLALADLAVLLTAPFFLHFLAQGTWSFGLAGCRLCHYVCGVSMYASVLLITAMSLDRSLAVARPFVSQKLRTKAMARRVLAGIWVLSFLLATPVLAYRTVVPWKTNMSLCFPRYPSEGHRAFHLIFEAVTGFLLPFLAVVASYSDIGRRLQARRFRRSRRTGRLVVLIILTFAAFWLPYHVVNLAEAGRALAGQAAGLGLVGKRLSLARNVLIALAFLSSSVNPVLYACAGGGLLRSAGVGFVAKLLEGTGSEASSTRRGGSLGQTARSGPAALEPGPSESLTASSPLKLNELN

[16] = molecular target: T1, Serotonin 3 (5-HT3) receptor (Rattus norvegicus); assay: Agonistic activity of compound towards 5-hydroxytryptamine 3 receptor in Von Bezold-Jarisch Reflex in rats at 60 (ug/kg), evaluated as change in heart rate; format: functional
[17] = molecular target: Angiotensin II receptor (Homo sapiens) (UniProt P30556+P50052); assay: Inhibitory activity against Angiotensin II receptor using [3H]Angiotensin II at […] (M); format: protein assay
[18] = molecular target: D(1A) dopamine receptor (Homo sapiens) (UniProt P21728); assay: Inhibitory activity against Dopamine receptor D1 using [3H]SCH-23,390 at […] (M)
[19] = molecular target: Insulin receptor (Homo sapiens) (UniProt P06213); assay: Displacement of [3H]insulin from Insulin receptor at 10e-5 M
Sequence of Insulin receptor (Homo sapiens) (P06213 28-758 limits assumed): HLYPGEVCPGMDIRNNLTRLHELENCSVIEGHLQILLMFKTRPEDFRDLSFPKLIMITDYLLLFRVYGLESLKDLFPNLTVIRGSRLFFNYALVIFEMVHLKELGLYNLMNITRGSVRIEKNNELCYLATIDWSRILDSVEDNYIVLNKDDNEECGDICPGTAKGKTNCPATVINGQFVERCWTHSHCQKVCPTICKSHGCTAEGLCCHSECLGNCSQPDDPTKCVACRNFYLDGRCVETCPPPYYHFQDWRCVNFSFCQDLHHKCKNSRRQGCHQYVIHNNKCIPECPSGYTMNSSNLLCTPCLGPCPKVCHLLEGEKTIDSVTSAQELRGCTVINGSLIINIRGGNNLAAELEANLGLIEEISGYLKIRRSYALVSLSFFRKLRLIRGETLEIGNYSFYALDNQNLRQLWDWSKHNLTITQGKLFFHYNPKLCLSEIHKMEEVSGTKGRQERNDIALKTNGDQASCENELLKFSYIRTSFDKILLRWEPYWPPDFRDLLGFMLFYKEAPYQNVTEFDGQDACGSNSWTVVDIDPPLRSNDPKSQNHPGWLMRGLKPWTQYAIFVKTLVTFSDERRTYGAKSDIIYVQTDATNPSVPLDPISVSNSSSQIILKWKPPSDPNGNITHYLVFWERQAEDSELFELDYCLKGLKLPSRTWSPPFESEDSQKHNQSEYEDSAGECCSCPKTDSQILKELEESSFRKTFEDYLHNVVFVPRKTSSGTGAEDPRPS
Sequence of Insulin receptor (Homo sapiens) (P06213 763-1382 limits assumed): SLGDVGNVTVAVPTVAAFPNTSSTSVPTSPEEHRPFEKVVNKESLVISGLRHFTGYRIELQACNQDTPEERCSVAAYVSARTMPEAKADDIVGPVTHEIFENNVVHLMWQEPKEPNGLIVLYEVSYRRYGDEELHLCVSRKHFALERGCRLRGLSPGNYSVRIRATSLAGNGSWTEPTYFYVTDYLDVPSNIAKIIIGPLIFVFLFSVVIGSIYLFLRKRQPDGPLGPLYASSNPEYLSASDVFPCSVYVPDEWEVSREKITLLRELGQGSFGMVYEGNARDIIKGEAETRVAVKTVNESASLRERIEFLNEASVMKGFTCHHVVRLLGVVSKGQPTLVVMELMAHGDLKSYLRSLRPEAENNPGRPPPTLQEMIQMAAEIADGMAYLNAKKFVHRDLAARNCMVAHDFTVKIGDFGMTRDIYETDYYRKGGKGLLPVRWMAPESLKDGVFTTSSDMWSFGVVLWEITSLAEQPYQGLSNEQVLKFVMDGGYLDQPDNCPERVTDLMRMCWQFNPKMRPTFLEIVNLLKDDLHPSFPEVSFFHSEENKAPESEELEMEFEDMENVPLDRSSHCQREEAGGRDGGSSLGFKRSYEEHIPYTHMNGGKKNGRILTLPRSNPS

[20] = molecular target: Glutamate receptor ionotropic kainate (Homo sapiens) (UniProt P39086+Q16478+Q16099+Q13002+Q13003); assay: Inhibitory activity against Ionotropic glutamate receptor kainate using [3H]- Kainate at […] (M); format: protein-complex assay
[21] = molecular target: Delta-type opioid receptor (Rattus norvegicus) (UniProt P33533); assay: Inhibitory activity against Opioid receptor delta 1 using [3H]Cl-phe-DPDPE at 10e-5 (M)
Sequence of Delta-type opioid receptor (Rattus norvegicus) (P33533 whole entry): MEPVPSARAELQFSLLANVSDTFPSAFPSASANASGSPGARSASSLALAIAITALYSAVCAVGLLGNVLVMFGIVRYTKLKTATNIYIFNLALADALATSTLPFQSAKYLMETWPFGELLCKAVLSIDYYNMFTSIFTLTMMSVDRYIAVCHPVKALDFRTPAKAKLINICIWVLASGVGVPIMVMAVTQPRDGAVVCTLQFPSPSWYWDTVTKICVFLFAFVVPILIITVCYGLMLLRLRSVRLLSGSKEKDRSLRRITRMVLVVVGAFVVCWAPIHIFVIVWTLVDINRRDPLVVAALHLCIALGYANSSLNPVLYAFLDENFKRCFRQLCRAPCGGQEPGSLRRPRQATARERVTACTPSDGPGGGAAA

[22] = molecular target: Kappa-type opioid receptor (Homo sapiens) (UniProt P41145); assay: Inhibitory activity against Opioid receptor kappa 1 using [3H]U-69593 at 10e-5 (M)
Sequence of Kappa-type opioid receptor (Homo sapiens) (P41145 whole entry): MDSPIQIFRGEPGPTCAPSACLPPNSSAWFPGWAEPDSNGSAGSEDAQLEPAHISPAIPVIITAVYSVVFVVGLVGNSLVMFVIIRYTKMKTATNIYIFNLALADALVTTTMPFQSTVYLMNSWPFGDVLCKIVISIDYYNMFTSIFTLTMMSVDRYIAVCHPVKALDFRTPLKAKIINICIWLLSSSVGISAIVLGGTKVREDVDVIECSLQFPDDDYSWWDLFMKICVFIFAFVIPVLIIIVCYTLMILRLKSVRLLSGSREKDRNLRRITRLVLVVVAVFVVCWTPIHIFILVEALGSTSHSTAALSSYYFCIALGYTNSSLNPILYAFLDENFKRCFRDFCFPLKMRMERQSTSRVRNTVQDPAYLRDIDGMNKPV

[23] = molecular target: Neuropeptide Y receptor type 1 (Homo sapiens) (UniProt P25929); assay: Inhibitory activity against Neuropeptide Y receptor type 1 using [3H]-NPY at 10e5 (M)
Sequence of Neuropeptide Y receptor type 1 (Homo sapiens) (P25929 whole entry): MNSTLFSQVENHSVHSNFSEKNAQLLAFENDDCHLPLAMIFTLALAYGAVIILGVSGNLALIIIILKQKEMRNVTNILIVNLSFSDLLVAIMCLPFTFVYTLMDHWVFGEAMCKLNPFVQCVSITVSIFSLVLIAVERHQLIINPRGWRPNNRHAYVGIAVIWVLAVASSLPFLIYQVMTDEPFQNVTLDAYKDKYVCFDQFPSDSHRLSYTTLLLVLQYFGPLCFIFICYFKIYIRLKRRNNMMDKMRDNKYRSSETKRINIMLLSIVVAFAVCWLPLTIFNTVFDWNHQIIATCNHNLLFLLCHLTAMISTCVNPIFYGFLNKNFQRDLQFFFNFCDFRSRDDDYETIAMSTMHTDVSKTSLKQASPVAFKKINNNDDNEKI

[24] = molecular target: T2, 5-hydroxytryptamine receptor 2C (Homo sapiens, UniProt P28335); assay: Binding affinity towards 5-hydroxytryptamine 2C receptor
T2 sequence (P28335 whole entry): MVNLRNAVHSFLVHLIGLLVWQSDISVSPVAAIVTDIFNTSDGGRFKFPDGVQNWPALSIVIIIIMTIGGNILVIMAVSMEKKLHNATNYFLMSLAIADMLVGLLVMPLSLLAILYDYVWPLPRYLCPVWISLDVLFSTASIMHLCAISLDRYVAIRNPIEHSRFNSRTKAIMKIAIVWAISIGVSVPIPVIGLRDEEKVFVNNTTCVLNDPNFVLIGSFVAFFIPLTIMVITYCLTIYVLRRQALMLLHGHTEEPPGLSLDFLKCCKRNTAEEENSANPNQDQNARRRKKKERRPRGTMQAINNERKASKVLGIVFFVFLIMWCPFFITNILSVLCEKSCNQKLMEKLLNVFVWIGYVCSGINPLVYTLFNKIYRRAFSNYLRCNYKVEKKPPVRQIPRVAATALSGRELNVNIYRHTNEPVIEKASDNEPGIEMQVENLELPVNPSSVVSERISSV

[25] = Inhibition of [3H]batrachotoxin binding to sodium channel at 10e-7 M
[26] = molecular target: Gastrin/cholecystokinin type B receptor (Homo sapiens) (UniProt P32239); assay: Inhibitory activity against Cholecystokinin type B receptor using [3H]CCK-8 at […] (M)
[27] = molecular target: D(2) dopamine receptor (Homo sapiens) (UniProt P14416); assay: In vitro displacement from Dopamine receptor D2; details: concentration not given here
Sequence of D(2) dopamine receptor (Homo sapiens) (P14416 whole entry): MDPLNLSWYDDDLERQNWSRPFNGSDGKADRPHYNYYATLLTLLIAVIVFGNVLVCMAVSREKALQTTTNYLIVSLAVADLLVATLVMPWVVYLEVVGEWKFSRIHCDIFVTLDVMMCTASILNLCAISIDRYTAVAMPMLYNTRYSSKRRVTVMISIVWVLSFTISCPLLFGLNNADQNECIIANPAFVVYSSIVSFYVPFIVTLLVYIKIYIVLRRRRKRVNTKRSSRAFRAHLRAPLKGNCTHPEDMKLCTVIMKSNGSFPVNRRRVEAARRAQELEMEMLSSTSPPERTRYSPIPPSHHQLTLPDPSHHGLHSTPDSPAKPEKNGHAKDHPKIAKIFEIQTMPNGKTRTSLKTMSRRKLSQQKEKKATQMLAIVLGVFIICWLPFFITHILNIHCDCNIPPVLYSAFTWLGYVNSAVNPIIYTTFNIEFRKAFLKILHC

## c1ccc(CN2CCN(c3nc4ccsc4n4cccc34)CC2)cc1
[1]
  inhibition: 4%
[2]
  inhibition: 1%
[3]
  inhibition: 79%
[4]
  inhibition: 29%
[5]
  inhibition: 19%
[6]
  inhibition: 7%
[7]
  IC50: 14.1 µM
[8]
  inhibition: 12%
[9]
  Change: 42%
[10]
  inhibition: 40%
[11]
  inhibition: 2%
[12]
  inhibition: 6%
[13]
  inhibition: 32%
[14]
  inhibition: 5%
[15]
  inhibition: 17%
[16]
  Change: 0%
[17]
  inhibition: 18%
[18]
  inhibition: 14%
[19]
  inhibition: 15%
[20]
  inhibition: 12%
[21]
  inhibition: 14%
[22]
  inhibition: 55%
[23]
  inhibition: 4%
[24]
  IC50: 1.86 µM
[25]
  inhibition: 28%
[26]
  inhibition: 18%
[27]
  inhibition: 5%
